The nature of series [1]: Inhibition of Hepatitic C virus NS3/4A protease by FRET assay. Also on record: species or system Hepacivirus hominis.
A short description of series [2]: Cytotoxicity against human Huh7.5 cells after 96 hrs by MTT assay. Format: cell-based, Huh-7.
Another series deals with Hepatitis C virus. The experiment in a line: Antiviral activity against Hepatitis C virus infected in human Huh7.5 cells assessed as inhibition of viral replication after 96 hrs by quantitative RT-PCR analysis. Format: functional, organism-based, Hepacivirus hominis. The note with it: Huh-7, 96 h.
The nature of series [3]: Selectivity index, ratio of CC50 for human Huh7.5 cells to EC50 for Hepatitis C virus infected in human HuH7.5 cells. Format: toxicity, cell-based, Huh-7. The note with it: read-out: Ratio CC50/EC50.

Each structure is given as a SMILES string. A value given as a limit tells only on which side of the number the result lay.

`O=c1c(O[C@@H]2O[C@H](CO)[C@@H](O)[C@H](O)[C@H]2O)c(-c2ccc(O)c(O)c2)oc2cc(O)cc(O)c12` [ISOQUERCETIN] returned a half-inhibitory concentration (IC50) in series [1] of over 10 µg/mL. With `O=C1O[C@H]2[C@@H]3OC(=O)c4cc(O)c(O)c(O)c4-c4c(cc(O)c(O)c4O)C(=O)OC[C@H]2O[C@@H](OC(=O)c2cc(O)c(O)c(O)c2)[C@@H]3OC(=O)c2cc(O)c(O)c3c2[C@@H]2C1=CC(=O)[C@](O)(O3)C2(O)O` [GERANIIN], in series [1] (read-out: IC50), the 50% inhibitory concentration (IC50) turned out to be 8.91 µM. The molecule further registered a CC50 at 96 h in series [2] of 63.4 µM. Also, the half-maximal effective concentration (EC50) in the series on Hepatitis C virus was 33.2 µM. Besides, the selectivity ratio in series [3] is 1.9. In series [1], `COc1cc(O[C@@H]2O[C@H](CO[C@@H]3O[C@H](C)[C@@H](O)[C@H](O)[C@@H]3O)[C@@H](O)[C@H](O)[C@H]2O)ccc1O` [CUNEATASIDES D] showed a 50% inhibitory concentration (IC50) of over 10 µg/mL. Still for that read-out and setting: then `Oc1cc(O)c2c(c1)O[C@H](c1cc(O)c(O)c(O)c1)[C@@H](O)C2` [GALLOCATECHIN], with over 10 µg/mL. For `COc1ccc2c(O[C@@H]3C[C@H]4C(=O)N[C@]5(C(=O)O)C[C@H]5/C=C\CCCCC[C@H](NC(=O)OC5CCCC5)C(=O)N4C3)cc(-c3csc(NC(C)C)n3)nc2c1` [CILUPREVIR], the IC50 in series [1] (read-out: IC50) turned out to be 1.54 µM. As to `O=C(O[C@@H]1O[C@@H]2COC(=O)c3cc(O)c(O)c4oc5c(O)c(O)cc(c5c34)C(=O)O[C@@H]3[C@H]1OC(=O)c1cc(O)c(O)c4c1[C@@H]1[C@@]5(C[C@]6(O)OC[C@@H](O)[C@@H]6O[C@@H]5C(O)(O)C(O)(O)[C@]1(O)O4)C(=O)O[C@@H]32)c1cc(O)c(O)c(O)c1` [EXCOECARIPHENOL D], in series [1] (read-out: IC50), the concentration for half-maximal inhibition (IC50) stood at 6.93 µM. Also, it took 56.2 µM to reach half-maximal cytotoxicity in series [2] (CC50 at 96 h). Moreover, the half-maximal effective concentration (EC50) with Hepatitis C virus is 12.6 µM. For the same molecule, the selectivity ratio in series [3] turned out to be 4.5. In series [1], `COC(=O)Cc1c(C(=O)O[C@H]2[C@H](OC(=O)c3cc(O)c(O)c(O)c3)O[C@@H]3COC(=O)c4cc(O)c(O)c(O)c4-c4c(cc(O)c(O)c4O)C(=O)O[C@H]2[C@@H]3O)cc(O)c(O)c1O` [EXCOECARIPHENOL C] gave an IC50 of over 10 µg/mL. Regarding `O=C(O)C[C@@H]1C(=O)O[C@H]2[C@@H]3OC(=O)c4cc(O)c(O)c(O)c4-c4c(cc(O)c(O)c4O)C(=O)OC[C@H]2O[C@@H](OC(=O)c2cc(O)c(O)c(O)c2)[C@@H]3OC(=O)c2cc(O)c(O)c3c2[C@H]1[C@H](O)C(=O)O3` [CHEBULAGIC ACID], the IC50 in series [1] (read-out: IC50) came to 9.03 µM. The 50% cytotoxic concentration (CC50) at 96 h in series [2] amounted to 105 µM. Also, in the series on Hepatitis C virus, the half-maximal effective concentration (EC50) is 22.2 µM. For the same molecule, in series [3], the selectivity ratio is 4.7.

Take `O=C(O[C@@H]1O[C@@H]2COC(=O)c3cc(O)c(O)c(O)c3-c3c(cc(O)c(O)c3O)C(=O)O[C@H]([C@H]1O)[C@@H]2O)c1cc(O)c(O)c(O)c1` [CORILAGIN]: in series [1] (read-out: IC50), the IC50 was found to be 3.45 µM. Also, in series [2], the cytotoxic concentration (CC50) at 96 h stood at 96.7 µM. In addition, the EC50 in the series with Hepatitis C virus came to 13.6 µM. Besides, the selectivity ratio in series [3] was 7.1.

`O=C(O[C@@H]1O[C@@H]2COC(=O)c3cc(O)c(O)c(O)c3-c3c(cc(O)c(O)c3O)C(=O)O[C@H]([C@H]1O)[C@@H]2OC(=O)c1cc(O)c(O)c(O)c1)c1cc(O)c(O)c(O)c1`: the IC50 in series [1] was over 10 µg/mL. Turning to `OC[C@H]1O[C@@H](Sc2c(O)cc(O)c3c2O[C@H](c2cc(O)c(O)c(O)c2)[C@@H](O)C3)[C@H](O)[C@@H](O)[C@@H]1O` [EXCOECARIPHENOL B], in series [1], the IC50 was over 10 µg/mL. In the case of `C[C@@H]1O[C@@H](OC[C@H]2O[C@@H](OCc3ccccc3)[C@H](O)[C@@H](O)[C@@H]2O)[C@H](O)[C@H](O)[C@H]1O` [HYDRANGEIFOLIN I], the IC50 in series [1] was over 10 µg/mL. The molecule `COc1cc(CO[C@@H]2O[C@H](CO)[C@@H](O)[C@H](O)[C@H]2O)cc(OC)c1O` came in with an IC50 in series [1] of over 10 µg/mL. With `COc1ccc(CO)cc1O[C@@H]1O[C@H](COC(=O)c2cc(O)c(O)c(O)c2)[C@@H](O)[C@H](O)[C@H]1O`, the concentration for half-maximal inhibition (IC50) in series [1] is over 10 µg/mL. On the same count and under the same terms, the value for `OC[C@H]1O[C@@H](Sc2c(O)cc(O)c3c2O[C@H](c2ccc(O)c(O)c2)[C@@H](O)C3)[C@H](O)[C@@H](O)[C@@H]1O` [EXCOECARIPHENOL A] was over 10 µg/mL; that for `O=C(O[C@@H]1O[C@@H]2COC(=O)c3cc(O)c(O)c(O)c3-c3c(cc(O)c(O)c3O)C(=O)O[C@@H]([C@@H]2O)[C@H]1OC(=O)c1cc(O)c(O)c(O)c1)c1cc(O)c(O)c(O)c1` was over 10 µg/mL. Still for that read-out and setting: the value for `O=C1O[C@H]2[C@H](O)[C@@H](OC(=O)c3cc(O)c(O)c4c3[C@@H]3C1=CC(=O)C(O)(O)C3(O)O4)[C@H](OC(=O)c1cc(O)c(O)c(O)c1)O[C@@H]2CO` (stereo partly drawn) [FUROSIN] was over 10 µg/mL; that for `COc1cc(/C=C/CO[C@@H]2O[C@H](CO)[C@@H](O)[C@H](O)[C@H]2O)cc(OC)c1O` was over 10 µg/mL. Still for that read-out and setting: then `O=c1oc2c(O)c(O[C@@H]3OC[C@@H](O)[C@H](O)[C@H]3O)cc3c(=O)oc4c(O)c(O)cc1c4c23` [ELLAGIC ACID 4-O-XYLOPYRANOSIDE], with over 10 µg/mL. In series [1], `COc1cc(O[C@@H]2O[C@H](CO)[C@@H](O)[C@H](O)[C@H]2O)cc(OC)c1O` [KOABURASIDE] displayed a concentration for half-maximal inhibition (IC50) of over 10 µg/mL. The same measure, in the same setting: the value for `Oc1cc(O)c2c(c1)O[C@H](c1ccc(O)c(O)c1)[C@@H](O)C2` [CIANIDANOL] was over 10 µg/mL.

Source of the values: ChEMBL document CHEMBL1938330, “Inhibitory effects of polyphenols toward HCV from the mangrove plant Excoecaria agallocha L” (Bioorg Med Chem Lett, 2012).
